These results are taken from patent publication US9855346B2, “Fluorescent dye compositions and uses thereof” (Chang Gung University of Science and Technology, priority 2014, dated 2018).

Series [1] can be described thus: In vivo real-time optical imaging after IV injection. The arrangement: species or system Sprague-Dawley rats. Particulars: rats. As to the method:
Male Sprague-Dawley rats aged 8˜10 weeks was supplied by Lasco (Taipei, Taiwan). Animal experimental protocol was approved by the Institutional Animal Care and Use Committee of Chang Gung University, Taiwan. The rats had free access to water and food at all time. The rats were anesthetized and injected with the compositions of the present invention or the control solution (dimethyl sulfoxide:Tween 80:normal saline=4:2:4) at a DiR dose of 40 μg/kg via femoral vein. In vivo real-time imaging was acquired using Pearl® Impulse at NIR wavelength. Rats were sacrificed 4 h post-injection. The following organs were collected and washed with normal saline: skin, muscle, heart, lungs, liver, spleen, and kidneys. The fluorescence intensity in these organs was assessed Ex Vivo by Pearl® Impulse. In Vivo optical images were taken after ICG, control DiR solution (with 40% v/w dimethyl sulfoxide) and S1-S4 compositions were administered into the rats via intravenous (IV) injection.

Series [2] in a line: NMR line width of half-amplitude (mobility of CP). It counts as physicochemical. Conditions: line width at half amplitude of methylene protons, 1H-NMR. How it is done:
The mobility of CP in the compositions was evaluated by NMR, by measuring the line widths of half-amplitude (Hz) of methylene protons. Compositions were diluted with deuterium oxide by 3-fold. Neat CP was diluted with chloroform-d. The compositions were loaded into NMR tubes and their ^1H-NMR spectra were examined by Avance 400 spectrometer (Bruker, Bremen, Germany).
The mobility of solid fatty ester in lipid cores of the CP-containing compositions was examined by proton NMR. The line width of signals for neat CP was 3.50 Hz.

For the molecule `CC1(C)C(/C=C/C=C/C=C/C=C2\N(CCCCS(=O)(=O)O)c3ccc4ccccc4c3C2(C)C)=[N+](CCCCS(=O)(=O)[O-])c2ccc3ccccc3c21` [ICG, Indocyanine green], in series [1], the “time post-injection at which fluorescence is detected in the liver (liver clearance)” value is on record as at most 5 min. In addition, the imaging time result in series [1] (fluorescence activity in large and small vessels) was “about 5 min”.

As for `CCCCCCCCCCCCCCCCOC(=O)CCCCCCCCCCCCCCC` [CP, Cetyl palmitate], the “Line width (Hz)” value in series [2] worked out at 3.50 Hz.
